In patent US20160176880A1, “SUBSTITUTED IMIDAZO[1,2-A]PYRAZINECARBOXAMIDES AND USE THEREOF” (BAYER PHARMA AKTIENGESELLSCHAFT, priority 2013, published 2016) one finds MEC data, which are given here for six compounds.

Structures can show the parent of a compound that is named as a salt.

This test addresses T1, recombinant guanylate cyclase reporter cell line (Rattus norvegicus, UniProt P19686+P20595).
T1 construct: expressed in transfected cells
T1 sequence (P19686 1-690): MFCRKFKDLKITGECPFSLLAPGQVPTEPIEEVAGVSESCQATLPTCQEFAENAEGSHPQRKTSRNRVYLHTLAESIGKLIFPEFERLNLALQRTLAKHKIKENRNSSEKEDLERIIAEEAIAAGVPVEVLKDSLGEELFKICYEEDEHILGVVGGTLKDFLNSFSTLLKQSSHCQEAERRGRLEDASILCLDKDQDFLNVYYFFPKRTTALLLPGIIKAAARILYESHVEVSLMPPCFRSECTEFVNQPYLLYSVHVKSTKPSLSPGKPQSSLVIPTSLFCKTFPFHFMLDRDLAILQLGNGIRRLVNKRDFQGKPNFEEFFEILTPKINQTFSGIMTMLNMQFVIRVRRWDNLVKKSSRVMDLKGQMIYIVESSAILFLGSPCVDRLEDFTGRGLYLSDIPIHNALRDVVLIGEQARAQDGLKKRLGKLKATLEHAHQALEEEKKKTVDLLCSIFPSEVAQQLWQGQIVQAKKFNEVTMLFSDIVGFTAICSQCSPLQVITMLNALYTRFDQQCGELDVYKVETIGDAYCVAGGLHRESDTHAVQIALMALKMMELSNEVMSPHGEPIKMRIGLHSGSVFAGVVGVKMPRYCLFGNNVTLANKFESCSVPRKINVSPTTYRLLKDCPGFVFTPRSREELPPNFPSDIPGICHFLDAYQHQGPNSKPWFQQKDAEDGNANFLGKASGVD
T1 sequence (P20595 1-619): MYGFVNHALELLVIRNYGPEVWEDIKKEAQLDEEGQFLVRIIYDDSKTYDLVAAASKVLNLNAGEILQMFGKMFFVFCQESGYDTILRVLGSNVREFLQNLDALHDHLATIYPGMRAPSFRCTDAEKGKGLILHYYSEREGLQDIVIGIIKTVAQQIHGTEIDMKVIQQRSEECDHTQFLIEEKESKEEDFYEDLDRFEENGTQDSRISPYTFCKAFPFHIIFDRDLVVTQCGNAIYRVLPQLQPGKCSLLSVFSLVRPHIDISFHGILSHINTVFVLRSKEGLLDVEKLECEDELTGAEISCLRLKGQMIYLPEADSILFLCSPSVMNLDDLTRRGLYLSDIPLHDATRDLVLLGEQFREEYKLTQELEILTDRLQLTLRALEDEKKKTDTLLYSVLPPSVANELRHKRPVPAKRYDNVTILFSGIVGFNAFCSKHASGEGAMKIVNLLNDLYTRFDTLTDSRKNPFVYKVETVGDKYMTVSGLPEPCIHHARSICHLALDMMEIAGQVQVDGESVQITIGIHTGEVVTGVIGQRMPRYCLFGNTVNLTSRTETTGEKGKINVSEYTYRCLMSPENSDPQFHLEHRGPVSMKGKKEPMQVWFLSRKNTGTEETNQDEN
The test can be described thus: Effect on a recombinant guanylate cyclase reporter cell line. It counts as cell-based. The following applies: MEC = minimum effective concentration; in some cases mean values for individual determinations. The method, then:
B-2. Effect on a Recombinant Guanylate Cyclase Reporter Cell Line
The cellular action of the compounds of the invention is determined using a recombinant guanylate cyclase reporter cell line, as described in F. Wunder et al., Anal. Biochem. 339, 104-112 (2005).
Representative MEC values (MEC=minimum effective concentration) for the compounds of the invention are shown in the table below (in some cases as mean values for individual determinations): […]

Regarding `Cc1nc2c(OCC3CCCCC3)nccn2c1C(=O)NCc1ccc(F)c(F)c1` [Example 47, 8-(Cyclohexylmethoxy)-N-(3,4-difluorobenzyl)-2-methylimidazo[1,2-a]pyrazine-3-carboxamide], the MEC came out at 1.0 µM.

As for `Cc1nc2c(OCC3CCC3)nccn2c1C(=O)NCc1ccc(F)c(F)c1` [Example 48, 8-(Cyclobutylmethoxy)-N-(3,4-difluorobenzyl)-2-methylimidazo[1,2-a]pyrazine-3-carboxamide], the MEC turned out to be 3.0 µM.

Turning to `Cc1cn2c(C(=O)NCCCCCC#N)c(C)nc2c(OCc2c(F)cccc2F)n1` [Example 49, N-(5-Cyanopentyl)-8-[(2,6-difluorobenzyl)oxy]-2,6-dimethylimidazo[1,2-a]pyrazine-3-carboxamide], the MEC was 1.0 µM.

`C=CCONC(=O)c1c(C)nc2c(OCc3c(F)cccc3F)nc(C)cn12` [Example 51, N-(allyloxy)-8-[(2,6-difluorobenzyl)oxy]-2,6-dimethylimidazo[1,2-a]pyrazine-3-carboxamide trifluoroacetate]: the MEC was 3.0 µM.

For `Cc1cn2c(C(=O)NNc3ccc(F)cc3)c(C)nc2c(OCc2c(F)cccc2F)n1` [Example 52, 8-[(2,6-difluorobenzyl)oxy]-N′-(4-fluorophenyl)-2,6-dimethylimidazo[1,2-a]pyrazine-3-carbohydrazide], the MEC came to 0.3 µM.

As to `Cc1cn2c(C(=O)NNC(=O)CN(C)C)c(C)nc2c(OCc2c(F)cccc2F)n1` [Example 53, 8-[(2,6-difluorobenzyl)oxy]-N′-[(dimethylamino)acetyl]-2,6-dimethylimidazo[1,2-a]pyrazine-3-carbohydrazide], the MEC stood at 3.0 µM.
